Source: US8822206B2, “Device for high-throughput stimulation, immunostaining, and visualization of single cells” (The Johns Hopkins University, priority 2005, dated 2014)

Tested on: NIH3T3 mouse fibroblasts
Assay: Cell stimulation and anti-p65 immunofluorescence staining in the microfluidic device
Format: cell-based
Conditions: NIH3T3 mouse fibroblasts in device and on control slides; 10 ng/ml mouse TNF-alpha in media, 10 minutes stimulation
Text: The device was fabricated as described in Example 1. The device was filled with sterile 0.1% gelatin with all of the valves open through an inlet port 11 to coat the parallel fluid channels to promote cell adhesion. Valves were primed with filtered, distilled water. Alternatively, filling may be done with the ports closed as trapped air can be pushed out of the gas-permeable PDMS with hydrostatic pressure. The device was flushed with […] the coating agent. Well-separated NIH3T3 mouse fibroblasts at a concentration of about 9 million cells per ml were introduced into the parallel fluid channels through an inlet port and the device was transferred to a standard 5% CO2, 37° C. cell culture incubator for 3-4 hours to allow the cells to adhere to the glass bottom of the parallel fluid channels.
Using the multiplexer to control flow through the reaction units, a selection of valves were closed to allow for exposure of only a portion of the cells to a stimulant. A syringe containing a solution of 10 ng/ml of mouse TNF-alpha in media was attached to an inlet port, and cells were stimulated, or not, for 10 minutes. […] After secondary antibody staining and washing with DPBS, cells were overlaid with mounting media or other antifade agent to minimize photobleaching, and imaged using fluorescence microscopy. […]

TNF-alpha
localization of p65 (anti-p65 immunofluorescence): localization of p65 to the nucleus
